# Results taken from US20150183791A1, “IMIDAZO[1,2-b]PYRIDAZINE-BASED COMPOUNDS, COMPOSITIONS COMPRISING THEM, AND METHODS OF THEIR USE” (LEXICON PHARMACEUTICALS, INC., priority 2013, published 2015).
# Legend:
# [1] = target: T1, AAK1 (full length human) transfected with Flag/AP2MI in HEK293F cells; phospho-mu2 (Homo sapiens, UniProt Q2M2I8); experiment: HEK281 cell-based assay; details: HEK293F cells transfected with human AAK1 and AP2M1, 3 hours with compound, phospho-mu2 Western blot normalized to total Mu2
# T1 construct: HA; expressed in transfected cells; host or cells: HEK293F
# Experimental: HEK293F cells were cultured in media containing DMEM (Gibco, cat. #11965), 10% FBS (SAFC Biosciences, cat. #12103C), 1×GPS (glutamine, penicillin and streptomycin). On day one, cells were plated on a 10 cm dish so that they are ˜80% confluent at time of transfection. Roughly 12 million cells were in a 10 cm dish at time of transfection. On day two, each dish was transfected with 48 ug DNA and 144 ul Lipofectamine 2000 (Invitrogen, cat.#11668-019). The DNA was comprised of a mixture (per 10 cm dish) containing 3 ug AAK1/HA/pIRES (full length human, NCBI accession no. NP_055726.2), 45 μg Flag/AP2MI/pcDNA (full length human), and 1.5 ml OPTI-MEM. The Lipofectamine 2000 is made up of a mixture (per 10 cm dish) containing 144 μl Lipofectamine 2000 and 1.5 ml OPTI-MEM. Each mixture was transferred to individual 15 ml tubes and incubated at room temperature for 5 minutes, and then the two mixes were combined and incubated at room temperature for 20 minutes. Growth media was then aspirated from each 10 cm plate and replaced with 10 ml of DMEM+10% FBS (no GPS). Finally, 3 ml DNA/Lipofectamine mix was added to each 10 cm dish and mix gently followed by incubate of plate overnight at 37° C. and 5% CO2.
# On day three, compounds were diluted in 100% DMSO at 1000× final concentration, followed by 3-fold serial dilutions for a total of 5 concentrations tested. Four compounds were tested per 10 cm dish. One ul of each compound dilution was then pipetted into a deep-well, 96-well plate, followed by addition of 500 μl DMEM+0.5% FBS into each well for a 2× final concentration of each compound. Cells were resuspended in a 10 cm dish by simple pipetting (HEK293 cells come off the plate that easy at this point) and then transferred to a 50 ml conical tube and pelleted by centrifugation at 1000 rpm for 5 min. Cell pellets were then resuspended in 2.75 ml DMEM+0.5% FBS per 10 cm dish and 100 μl of cell suspension transferred into each well of 96-well TC plate. Finally, 100 μl of 2× compound diluted in DMEM+0.5% FBS was then added into wells containing cell suspension for a 1× final concentration. Plates were then incubated at 37° C. and 5% CO2 for 3 hours followed by transferring of cell suspensions from each well into 12-tube PCR strips. The PCR strips were spun in a tip rack at 1000 rpm for 5 minutes to pellet cells and media was then removed by pipetting without disturbing the cell pellet.
# To prepare for Western Blot analysis, cell pellets were resuspend in 40 ul 1×LDS-PAGE sample buffer (Invitrogen, cat.# NP0008) +2× Halt phophatase and protease inhibitor cocktail (Thermo Scientific, cat.#1861284), followed by sonicating each with microtip sonicator set at 5 for 8-10 seconds. Five ul of 10× NuPage Sample Reducing Agent (with […]) was to each sample followed by heat denaturing at 70 C for 10 min on PCR machine. A total of 10 μl per sample was loaded into each lane of a 4-20% Tris-Glycine Criterion 26-well gel (Biorad, cat.#345-0034) for the phospho-mu2 blot and 10 μl per lane in a 4-12% Bis-Tris (+MES buffer) NuPAGE 26-well gel (Invitrogen, cat.# WG1403BX10) for the mu2 blot. For controls, 2 ng of phospho-mu2 or 20 ng mu2/Flag proteins were loaded in the last well of each gel. After SDS-PAGE, samples on each gel were transferred to PVDF membrane using an iBlot and membranes were blocked for one hour in TBST+5% milk, followed by wash 3× for 5-10 min with TBST. Criterion gels were probed with rabbit anti-phospho-mu2 (1:5000; a rabbit polyclonal antibody produced by New England Peptide and affinity purified at Lexicon) in TBST+5% BSA, whereas, NuPAGE gels were probed with mouse anti-Flag (1:500; Sigma, cat.# F1804) in TBST+5% milk, and these primary antibodies were incubated overnight at 4° C. on a rocker. […]
# [2] = target: AAK1 (full-length human protein) (Homo sapiens, UniProt Q2M2I8); experiment: P81 filter plate assay; type: biochemical
# Experimental: Compounds were serially diluted into a Labcyte LDV plate (Labcyte, cat# LP-0200) using a Mutiprobe (PerkinElmer) and Biomek FX (Beckman Coulter) so that the highest compound concentration was at 96 μM. Compounds were then pinged (75 nL per well) into a Greiner 384-well reaction plate (Greiner, #781076) using an ECHO 550 Liquid Handler (Labcyte). A total of 12 μl reaction buffer (IMAP buffer containing Tween and DTT, from Molecular Devices) was then added to each well of columns 1 and 13 for the negative controls and 12 μl of 2×AAK1 (0.2 nM full-length human protein, NCBI accession no. NP_055726.2) was added to the remaining wells. Enzyme was then pre-incubated with compound for 10 minutes at room temperature. Reactions were initiated upon Minitrak (PerkinElmer) addition of 12 μl substrate mix containing 2× Mu2 (0.2 μM, full length human protein), 2× cold ATP (2 μM), and 1.3 μCi of hot ^33P-ATP. Reactions proceeded for one hour at room temperature. Meanwhile, Millipore 384-well P81 filter plates (Millipore, catalog # MZPHN0 W10) were placed on a plate washer (Zoom ZW, from Titertek) and pre-wet with 50 μl 1% phosphoric acid. Kinase reactions were then stopped upon addition of 24 μl of 2% phosphoric acid to each well and the Minitrak was then used to transfer 40 μl from each well into the pre-wet Millipore 384-well P81 filter plates. Reaction mixtures were incubated for 10 minutes at room temperature in the P81 plates, followed by washing five times with 100 μl/well of 1% phosphoric acid using the Zoom filter washer. The bottom of each filter plate was sealed followed by addition of 20 μl Microscint 40 to each well, sealing the top of the plates with Flashplate cover, and then waiting one hour until reading on the TopCount (Perkin Elmer).
# [3] = 0.2 nM-scale full-length human AAK1, Mu2 substrate, 33P-ATP, one hour at room temperature, class symbols
# [4] = same assay, given as numeric bound instead of class symbol
# T1 sequence (Q2M2I8 1-863 isoform Q2M2I8-2): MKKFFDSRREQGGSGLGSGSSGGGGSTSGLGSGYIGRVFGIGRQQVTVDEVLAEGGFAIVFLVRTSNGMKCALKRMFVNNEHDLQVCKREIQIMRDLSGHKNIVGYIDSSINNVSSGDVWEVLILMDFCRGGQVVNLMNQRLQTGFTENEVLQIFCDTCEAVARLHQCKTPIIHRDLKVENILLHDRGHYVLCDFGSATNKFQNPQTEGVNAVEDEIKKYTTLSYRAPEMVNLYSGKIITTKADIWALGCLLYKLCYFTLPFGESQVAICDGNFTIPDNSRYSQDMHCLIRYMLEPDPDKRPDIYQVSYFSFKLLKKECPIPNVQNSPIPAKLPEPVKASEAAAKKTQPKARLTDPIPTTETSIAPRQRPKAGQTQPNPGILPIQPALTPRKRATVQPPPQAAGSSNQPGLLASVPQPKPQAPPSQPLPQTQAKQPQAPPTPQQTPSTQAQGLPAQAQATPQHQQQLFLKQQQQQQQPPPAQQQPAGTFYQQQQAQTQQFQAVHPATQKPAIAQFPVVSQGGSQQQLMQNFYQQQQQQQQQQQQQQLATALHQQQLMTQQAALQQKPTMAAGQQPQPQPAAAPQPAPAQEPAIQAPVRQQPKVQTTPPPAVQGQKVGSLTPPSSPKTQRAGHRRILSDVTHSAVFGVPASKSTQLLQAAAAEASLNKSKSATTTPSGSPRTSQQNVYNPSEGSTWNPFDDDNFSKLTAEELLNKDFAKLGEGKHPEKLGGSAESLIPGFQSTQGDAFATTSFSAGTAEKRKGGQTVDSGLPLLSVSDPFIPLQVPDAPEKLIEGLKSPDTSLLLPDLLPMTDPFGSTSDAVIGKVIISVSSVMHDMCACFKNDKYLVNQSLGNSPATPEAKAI
# Sequence of AAK1 (full-length human protein) (Q2M2I8 1-863 isoform Q2M2I8-2): as above
smiles,measurement,setting,value
"CNC(=O)c1ccc(-c2cnc3ccc(-c4cccc(C(=O)NCC(C)C)c4)nn23)cc1 [N-isobutyl-3-(3-(4-(methylcarbamoyl)phenyl)imidazo[1,2-b]pyridazin-6-yl)benzamide]",CBA IC50,[1],* (“*” means less than or equal to 1.0 μM)
same,IC50,[2]; [3],≤ 10 nM
"CC(C)CNC(=O)c1cccc(-c2ccc3ncc(-c4ccc(CN)cc4)n3n2)c1 [3-(3-(4-(Aminomethyl)phenyl)imidazo[1,2-b]pyridazin-6-yl)-N-isobutylbenzamide]",CBA IC50,[1],** (“**” means a value of less than or equal to 0.1 μM)
same,IC50,[2]; [3],≤ 10 nM
"CC(=O)c1cccc(-c2ccc3ncc(-c4ccc(C(N)=O)cc4)n3n2)c1 [4-(6-(3-Acetylphenyl)imidazo[1,2-b]pyridazin-3-yl)benzamide]",CBA IC50,[1],* (“*” means less than or equal to 1.0 μM)
"CC(C)CNC(=O)c1cncc(-c2ccc3ncc(-c4ccc(CN)cc4)n3n2)c1 [5-(3-(4-(Aminomethyl)phenyl)imidazo[1,2-b]pyridazin-6-yl)-N-isobutylnicotinamide]",CBA IC50,[1],** (“**” means a value of less than or equal to 0.1 μM)
same,IC50,[2]; [3],≤ 10 nM
"COc1cnccc1-c1cnc2ccc(-c3cccc(C(=O)NCC(C)C)c3)nn12 [N-isobutyl-3-(3-(3-methoxypyridin-4-yl)imidazo[1,2-b]pyridazin-6-yl)benzamide]",CBA IC50,[1],* (“*” means less than or equal to 1.0 μM)
same,IC50,[2]; [3],≤ 10 nM
"CC(C)CCC(=O)c1cccc(-c2ccc3ncc(-c4ccc(CN)cc4)n3n2)c1 [1-(3-(3-(4-(Aminomethyl)phenyl)imidazo[1,2-b]pyridazin-6-yl)phenyl)-4-methylpentan-1-one]",CBA IC50,[1],** (“**” means a value of less than or equal to 0.1 μM)
same,IC50,[2]; [3],≤ 10 nM
"CC(C)CNC(=O)c1cccc(-c2ccc3ncc(-c4ccncc4)n3n2)c1 [N-isobutyl-3-(3-(pyridin-4-yl)imidazo[1,2-b]pyridazin-6-yl)benzamide]",CBA IC50,[1],* (“*” means less than or equal to 1.0 μM)
same,IC50,[2]; [4],> 300 nM
"CC(C)C[C@@H](Cn1ccc(-c2ccc3nccn3n2)cc1=O)N1C(=O)c2ccccc2C1=O [(S)-2-(1-(4-(Imidazo[1,2-b]pyridazin-6-yl)-2-oxopyridin-1(2H)-yl)-4-methylpentan-2-yl)isoindoline-1,3-dione]",IC50,[2]; [4],> 300 nM
"CC(C)CCn1ccc(-c2ccc3ncc(Cl)n3n2)cc1=O [4-(3-Chloroimidazo[1,2-b]pyridazin-6-yl)-1-isopentylpyridin-2(1H)-one]",IC50,[2]; [3],≤ 10 nM
"CC(=O)c1cccc(-c2ccc3ncc(-c4ccc(CN)cc4)n3n2)c1 [1-(3-(3-(4-(Aminomethyl)phenyl)imidazo[1,2-b]pyridazin-6-yl)phenyl)ethanone]",CBA IC50,[1],** (“**” means a value of less than or equal to 0.1 μM)
same,IC50,[2]; [3],≤ 10 nM
"CC(=O)c1ccc(-c2cnc3ccc(-c4ccc(C#N)cc4)nn23)s1 [4-[3-(5-Acetyl-thiophen-2-yl)-imidazo[1,2-b]pyridazin-6-yl]-benzonitrile]",CBA IC50,[1],* (“*” means less than or equal to 1.0 μM)
"COc1ncccc1-c1cnc2ccc(-c3ccn(CCC(C)C)c(=O)c3)nn12 [1-isopentyl-4-(3-(2-methoxypyridin-3-yl)imidazo[1,2-b]pyridazin-6-yl)pyridin-2(1H)-one]",IC50,[2]; [3],≤ 10 nM
"CC(=O)c1cnc2ccc(-c3ccn(CCC(C)C)c(=O)c3)nn12 [4-(3-Acetylimidazo[1,2-b]pyridazin-6-yl)-1-isopentylpyridin-2(1H)-one]",IC50,[2]; [3],10 to 100 nM
"CC(=O)c1cccc(-c2ccc3ncc(Br)n3n2)c1 [1-(3-(3-Bromoimidazo[1,2-b]pyridazin-6-yl)phenyl)ethanone]",CBA IC50,[1],* (“*” means less than or equal to 1.0 μM)
"CCCCCc1ccc2ncc(-c3ccc(C(C)=O)s3)n2n1 [1-(5-(6-Pentylimidazo[1,2-b]pyridazin-3-yl)thiophen-2-yl)ethanone]",CBA IC50,[1],* (“*” means less than or equal to 1.0 μM)
"CC(C)C[C@H](N)Cn1ccc(-c2ccc3ncc(Br)n3n2)cc1=O [(S)-1-(2-Amino-4-methylpentyl)-4-(3-bromoimidazo[1,2-b]pyridazin-6-yl)pyridin-2(1H)-one]",IC50,[2]; [3],100 to 1000 nM
"CC(C)CCn1ccc(-c2ccc3ncc(Br)n3n2)cc1=O [4-(3-Bromoimidazo[1,2-b]pyridazin-6-yl)-1-isopentylpyridin-2(1H)-one]",IC50,[2]; [3],≤ 10 nM
